Target: T1, CHUK (IKK alpha) (Homo sapiens, UniProt O15111)
T1 construct: purchased Thermo Fisher Scientific (Life Technologies) SelectScreen
Assay: SelectScreen Adapta
Format: biochemical
Description: The in vitro kinase selectivity of NU5455 was determined using the SelectScreen Broad Assay Panel (Thermo Fisher Scientific) involving activity and binding assays (Supplemental Table 1). […] Class IA PI3Ks were measured using the p85α subunit.
Kinase [ATP] % Assay Kinase [ATP] % Assay Kinase [ATP] % Assay Kinase [ATP] % Assay
DNA-PK Km app 98.3 Z LATS2 n/a 4.7 L KIT D820E n/a 1.3 L GSK3B (GSK3 beta) Km app -2.5 Z
PIK3C3 (hVPS34) Km app 85.9 A PRKCZ (PKC zeta) Km app 4.7 Z GRK1 n/a 1.3 L BMPR2 n/a -2.5 L
PIK3C2B (PI3K-C2 beta) 10 28.9 A FGFR1 Km app 4.7 Z BRSK2 n/a 1.2 L CDC42 BPB (MRCKB) Km app -2.5 Z
SNF1LK2 Km app 26.6 Z MINK1 Km app 4.6 Z NUAK1 (ARK5) Km app 1.2 A AMPK (A2/B2/G2) n/a -2.6 L
HCK Km app 18.0 Z CSF1R (FMS) Km app 4.3 Z CDK9/cyclin K n/a 1.0 L PRKG1 Km app -2.7 Z
NEK2 Km app 17.8 Z CSNK1G3 (CK1 gamma 3) Km app 4.2 Z NUAK2 n/a 1.0 L KIT T670E n/a -2.8 L
ALK Km app 17.3 Z STK32C (YANK3) n/a 4.2 L CDK2/cyclin O n/a 0.9 L ERBB4 (HER4) Km app -2.8 Z
FGFR3 K650M n/a 16.5 L STK22D (TSSK1) Km app 4.2 Z CAMKK2 (CaMKK beta) n/a 0.9 L PLK4 n/a -2.8 L
SIK3 n/a 16.1 L TAOK3 (JIK) n/a 4.2 L FGFR3 Km app 0.9 Z GRK7 Km app -3.0 Z
LYN A Km app 15.2 Z RPS6KA4 (MSK2) Km app 4.2 Z ULK2 n/a 0.9 L MAPKAPK2 Km app -3.1 Z
BMPR1B (ALK6) n/a 14.5 L PTK2B (FAK2) Km app 4.2 Z KIT D816V n/a 0.9 L FGFR4 Km app -3.1 Z
INSRR (IRR) Km app 14.1 Z CLK2 Km app 4.1 Z CAMK1 (CaMK1) 10 0.8 A CASK n/a -3.1 L
PLK2 Km app 14.1 Z STK24 (MST3) Km app 4.1 Z PTK6 (Brk) Km app 0.7 Z GRK5 Km app -3.2 Z
PRKACA (PKA) Km app 14.0 Z CAMK1D (CaMKI delta) Km app 4.1 Z CAMK2B (CaMKII beta) Km app 0.7 Z EGFR (ErbB1) T790M Km app -3.3 Z
EIF2AK2 (PKR) n/a 13.3 L INSR Km app 4.1 Z ACVR1 (ALK2) n/a 0.7 L PAK4 Km app -3.3 Z
PRKX Km app 12.5 Z IRAK1 Km app 4.0 A ABL1 H396P n/a 0.6 L DAPK3 (ZIPK) Km app -3.4 Z
FGR Km app 12.1 Z SRC N1 Km app 3.9 Z MERTK (cMER) A708S n/a 0.6 L RET M918T n/a -3.5 L
CLK1 Km app 11.7 Z SRPK2 Km app 3.9 Z MAPKAPK5 (PRAK) Km app 0.6 Z PRKCQ (PKC theta) Km app -3.7 Z
MARK3 Km app 11.4 Z RPS6KA6 (RSK4) Km app 3.8 Z AKT1 (PKB alpha) Km app 0.5 Z CAMKK1 (CAMKKA) n/a -3.8 L
PDGFRB (PDGFR beta) Km app 11.0 Z GRK6 Km app 3.7 Z NTRK3 (TRKC) Km app 0.4 Z FLT3 D835Y Km app -3.9 Z
PRKCN (PKD3) Km app 10.7 Z PKN1 (PRK1) Km app 3.6 Z ZAP70 Km app 0.3 Z ROCK2 Km app -4.1 Z
STK16 (PKL12) n/a 10.5 L MAP3K8 (COT) 100 3.5 Z CSNK1A1 (CK1 alpha 1) Km app 0.3 Z CHUK (IKK alpha) Km app -4.2 A
FES (FPS) Km app 10.4 Z FLT4 (VEGFR3) Km app 3.5 Z MYLK (MLCK) n/a 0.2 L AXL Km app -4.2 Z
ABL1 Km app 10.4 Z GRK4 Km app 3.5 Z MKNK2 (MNK2) n/a 0.2 L PIM2 Km app -4.3 Z
MUSK Km app 10.3 Z FRK (PTK5) Km app 3.4 Z AMPK (A1/B1/G3) n/a 0.2 L PAK1 Km app -4.4 Z
MAPK1 (ERK2) Km app 10.1 Z FYN A n/a 3.3 L MAP3K2 (MEKK2) n/a 0.1 L BMPR1A (ALK3) n/a -4.4 L
BRAF 100 9.9 Z CDK1/cyclin A2 n/a 3.3 L CDK8/cyclin C n/a 0.1 L STK4 (MST1) Km app -4.4 Z
IGF1R Km app 9.7 Z KIT V559D T670I n/a 3.1 L MARK2 Km app 0.1 Z PRKCH (PKC eta) Km app -4.6 Z
MAPK14 (p38 alpha) Km app 9.7 Z SPHK2 10 3.1 A ICK n/a 0.0 L SGKL (SGK3) Km app -4.6 Z
LCK Km app 9.6 Z FGFR3 G697C n/a 3.1 L FGFR2 Km app 0.0 Z PI4KB (PI4K beta) Km app -4.7 A
MAPK11 (p38 beta) Km app 9.5 Z RIPK2 n/a 3.1 L AKT2 (PKB beta) Km app 0.0 Z PRKCE (PKC epsilon) Km app -4.9 Z
SRC Km app 9.5 Z PAK6 Km app 3.0 Z EPHB2 Km app -0.1 Z PHKG1 Km app -5.0 Z
CHEK1 (CHK1) Km app 9.3 Z LYN B Km app 3.0 Z TGFBR2 n/a -0.1 L PDGFRA D842V Km app -5.0 Z
CAMK2D (CaMKII delta) Km app 9.3 Z DAPK2 n/a 2.9 L TEK (Tie2) Km app -0.1 Z PRKG2 (PKG2) Km app -5.1 Z
PLK1 Km app 9.2 Z EPHA4 Km app 2.9 Z AURKA (Aurora A) Km app -0.1 Z TYRO3 (RSE) Km app -5.1 Z
RET Y791F Km app 9.2 Z PIK3CG (p110 gamma) Km app 2.9 A KIT D816H n/a -0.2 L TAOK2 (TAO1) Km app -5.1 Z
FLT3 Km app 9.1 Z HIPK1 (Myak) Km app 2.8 Z KIT N822K n/a -0.2 L EPHB4 Km app -5.3 Z
MAPK10 (JNK3) 100 9.0 Z ADRBK2 (GRK3) Km app 2.8 Z PRKACG (PRKAC gamma) n/a -0.2 L AURKC (Aurora C) Km app -5.4 Z
CSNK2A2 (CK2 alpha 2) Km app 8.7 Z STK17B (DRAK2) n/a 2.7 L TEK (TIE2) Y1108F n/a -0.3 L JAK1 Km app -5.7 Z […]

T1 sequence (O15111 whole entry): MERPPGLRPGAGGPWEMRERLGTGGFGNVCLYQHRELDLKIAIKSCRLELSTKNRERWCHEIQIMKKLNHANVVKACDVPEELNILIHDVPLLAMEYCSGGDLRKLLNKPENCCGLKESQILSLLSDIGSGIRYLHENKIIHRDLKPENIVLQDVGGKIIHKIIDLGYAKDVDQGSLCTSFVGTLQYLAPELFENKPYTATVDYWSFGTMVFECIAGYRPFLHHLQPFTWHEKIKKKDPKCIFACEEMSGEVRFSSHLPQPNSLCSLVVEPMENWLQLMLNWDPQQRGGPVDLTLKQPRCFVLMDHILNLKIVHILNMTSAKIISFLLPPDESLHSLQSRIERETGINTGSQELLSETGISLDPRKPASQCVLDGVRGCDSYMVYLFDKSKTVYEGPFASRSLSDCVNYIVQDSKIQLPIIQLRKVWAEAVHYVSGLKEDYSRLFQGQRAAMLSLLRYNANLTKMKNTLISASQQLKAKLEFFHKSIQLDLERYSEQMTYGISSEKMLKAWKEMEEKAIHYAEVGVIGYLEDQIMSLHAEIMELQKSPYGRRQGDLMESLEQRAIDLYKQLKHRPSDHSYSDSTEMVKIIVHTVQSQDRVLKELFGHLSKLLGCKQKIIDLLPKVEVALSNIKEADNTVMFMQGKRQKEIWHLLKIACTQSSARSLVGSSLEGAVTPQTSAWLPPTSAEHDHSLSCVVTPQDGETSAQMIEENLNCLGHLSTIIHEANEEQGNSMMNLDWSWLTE

CN(C(=O)CN1CCOCC1)c1ccc2sc3c(-c4cccc5c(=O)cc(N6CC7CCC(C6)O7)oc45)cccc3c2c1 [NU5455]
inhibition at 1 µM: -4.2%

Source: PMC6934184, “Selective DNA-PKcs inhibition extends the therapeutic index of localized radiotherapy and chemotherapy” (The Journal of Clinical Investigation, 2019)
